According to ChEMBL document CHEMBL1772985, “N-(3-fluoro-4-(4-(2-methoxy or 2,3-dichlorophenyl)piperazine-1-yl)butyl)arylcarboxamides as selective dopamine D3 receptor ligands: critical role of the carboxamide linker for D3 receptor selectivity” (J Med Chem, 2011):

How the values were obtained:
D(3) dopamine receptor [1] = target: T1, D(3) dopamine receptor (Homo sapiens, UniProt P35462); test: Antagonist activity at human dopamine D3 receptor expressed in CHO-K1 cells assessed as inhibition of dopamine-induced recruitment of beta-arrestin-2 at 10 uM after 90 mins by beta-galactosidase assay; format: functional, cell-based
D(4) dopamine receptor = target: T2, D(4) dopamine receptor (Homo sapiens, UniProt P21917); test: Displacement of [125I]-IABN from human dopamine D4 receptor expressed in HEK293 cells after 60 mins by gamma counting; format: cell-based
T2 sequence (P21917 whole entry): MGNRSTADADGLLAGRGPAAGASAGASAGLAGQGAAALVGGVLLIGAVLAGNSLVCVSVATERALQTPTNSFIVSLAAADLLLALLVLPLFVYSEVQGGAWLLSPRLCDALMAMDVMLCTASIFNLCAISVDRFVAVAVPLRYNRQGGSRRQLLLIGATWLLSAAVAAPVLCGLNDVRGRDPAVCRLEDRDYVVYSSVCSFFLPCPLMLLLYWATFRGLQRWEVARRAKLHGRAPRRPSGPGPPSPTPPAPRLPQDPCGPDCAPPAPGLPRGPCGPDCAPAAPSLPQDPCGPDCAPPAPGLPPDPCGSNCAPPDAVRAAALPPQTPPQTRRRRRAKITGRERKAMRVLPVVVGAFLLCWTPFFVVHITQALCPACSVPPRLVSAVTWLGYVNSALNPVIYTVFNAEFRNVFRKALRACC

D(3) dopamine receptor [2] = target: T1, D(3) dopamine receptor; test: Antagonist activity at human dopamine D3 receptor expressed in CHOp cells assessed as inhibition of quinpirole-induced mitogenesis; format: functional, cell-based
[3] = target: T3, 5-hydroxytryptamine receptor 1A (Homo sapiens, UniProt P08908); test: Agonist activity at 5HT1A receptor assessed as stimulation of [35S]GTPgammaS binding; format: functional
T3 sequence (P08908 whole entry): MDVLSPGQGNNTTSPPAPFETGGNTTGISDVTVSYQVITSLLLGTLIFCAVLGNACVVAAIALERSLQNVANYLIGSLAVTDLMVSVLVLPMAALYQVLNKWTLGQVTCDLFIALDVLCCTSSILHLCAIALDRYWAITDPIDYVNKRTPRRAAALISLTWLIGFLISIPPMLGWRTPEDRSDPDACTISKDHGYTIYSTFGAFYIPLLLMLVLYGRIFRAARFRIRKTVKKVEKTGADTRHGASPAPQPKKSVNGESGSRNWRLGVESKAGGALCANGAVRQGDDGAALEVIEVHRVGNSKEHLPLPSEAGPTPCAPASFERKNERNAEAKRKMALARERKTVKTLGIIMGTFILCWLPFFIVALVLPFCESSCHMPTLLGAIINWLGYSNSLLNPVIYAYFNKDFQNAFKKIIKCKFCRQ

[4] = target: T4, 5-hydroxytryptamine receptor 1A (Homo sapiens) (UniProt P08908); test: Agonist activity at 5HT1A receptor assessed as stimulation of [35S]GTPgammaS binding relative to control; format: functional; design: concentration or dose not given beside the values
T4 sequence (whole entry): T3 sequence (P08908 whole entry)

Homo sapiens = species on record: Homo sapiens; test: Selectivity ratio Ki for human dopamine D2L receptor to Ki for human dopamine D3 receptor
[5] = target: T3, 5-hydroxytryptamine receptor 1A; test: Displacement of [3H]8-OH-DPAT from 5HT1A receptor
D(3) dopamine receptor [6] = target: T1, D(3) dopamine receptor; test: Displacement of [125I]-IABN from human dopamine D3 receptor expressed in HEK293 cells after 60 mins by gamma counting; format: cell-based
[7] = target: 5-hydroxytryptamine receptor 2A (Homo sapiens, UniProt P28223)
D(2) dopamine receptor = D(2) dopamine receptor (Homo sapiens, UniProt P14416); test: Displacement of [125I]-IABN from human dopamine D2L receptor expressed in HEK293 cells after 60 mins by gamma counting; format: cell-based
D(3) dopamine receptor [8] = target: T1, D(3) dopamine receptor; test: Antagonist activity at human dopamine D3 receptor expressed in CHO-K1 cells assessed as inhibition of dopamine-induced recruitment of beta-arrestin-2 after 90 mins by beta-galactosidase assay; format: functional, cell-based
[9] = target: T4, 5-hydroxytryptamine receptor 1A (Homo sapiens); test: Displacement of [3H]8-OH-DPAT from 5HT1A receptor at 10 uM
[10] = Binding affinity to human dopamine D2/E2 loop of D3 receptor expressed in HEK293 cells; format: cell-based
[11] = Binding affinity to human dopamine D2/D3 receptor chimera B expressed in HEK293 cells; format: cell-based
[12] = Binding affinity to human dopamine D2/D3 receptor chimera C expressed in HEK293 cells; format: cell-based

D(2) dopamine receptor, sequence (P14416 whole entry): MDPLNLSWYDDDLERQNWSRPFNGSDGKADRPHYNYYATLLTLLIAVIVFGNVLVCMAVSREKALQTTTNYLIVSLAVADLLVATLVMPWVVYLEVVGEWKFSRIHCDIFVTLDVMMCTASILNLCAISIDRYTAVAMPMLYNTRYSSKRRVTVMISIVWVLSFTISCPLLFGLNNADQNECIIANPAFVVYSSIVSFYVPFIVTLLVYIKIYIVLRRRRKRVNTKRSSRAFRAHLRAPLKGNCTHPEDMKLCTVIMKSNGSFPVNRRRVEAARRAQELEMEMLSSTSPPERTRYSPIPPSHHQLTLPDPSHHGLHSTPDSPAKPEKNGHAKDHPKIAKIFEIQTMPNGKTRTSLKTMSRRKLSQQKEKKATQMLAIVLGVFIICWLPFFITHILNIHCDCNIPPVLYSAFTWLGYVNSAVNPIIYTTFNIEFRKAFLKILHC
T1 sequence (P35462 whole entry): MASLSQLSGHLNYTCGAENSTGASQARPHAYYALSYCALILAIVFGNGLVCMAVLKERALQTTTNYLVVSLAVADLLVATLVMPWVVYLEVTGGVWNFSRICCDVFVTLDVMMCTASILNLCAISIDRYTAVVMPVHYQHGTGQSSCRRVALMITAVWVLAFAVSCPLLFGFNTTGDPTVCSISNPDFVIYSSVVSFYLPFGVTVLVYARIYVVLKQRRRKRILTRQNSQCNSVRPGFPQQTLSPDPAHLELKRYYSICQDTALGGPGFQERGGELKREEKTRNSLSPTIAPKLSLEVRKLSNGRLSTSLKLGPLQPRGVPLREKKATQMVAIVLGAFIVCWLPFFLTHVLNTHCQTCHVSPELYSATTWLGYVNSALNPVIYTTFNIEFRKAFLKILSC
5-hydroxytryptamine receptor 2A, sequence (P28223 whole entry): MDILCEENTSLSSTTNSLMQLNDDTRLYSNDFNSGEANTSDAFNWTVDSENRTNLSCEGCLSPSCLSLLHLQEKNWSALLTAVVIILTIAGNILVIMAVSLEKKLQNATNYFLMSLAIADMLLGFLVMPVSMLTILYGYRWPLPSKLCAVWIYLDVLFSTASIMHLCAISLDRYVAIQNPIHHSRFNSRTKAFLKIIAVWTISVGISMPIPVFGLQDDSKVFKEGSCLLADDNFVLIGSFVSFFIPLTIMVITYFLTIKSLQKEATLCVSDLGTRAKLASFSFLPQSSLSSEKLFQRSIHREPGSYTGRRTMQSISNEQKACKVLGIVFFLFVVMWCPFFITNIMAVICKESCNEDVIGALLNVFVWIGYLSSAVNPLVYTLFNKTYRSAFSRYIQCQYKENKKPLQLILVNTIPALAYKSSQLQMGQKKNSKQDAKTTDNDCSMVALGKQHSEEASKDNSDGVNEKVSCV

inhibition (D(3) dopamine receptor [1])	Ki (D(4) dopamine receptor)	IC50 (D(3) dopamine receptor [2])	EC50 [3]	Activity [4]	Ratio Ki (Homo sapiens)	Ki [5]	Ki (D(3) dopamine receptor [6])	Ki [7]	Ki (D(2) dopamine receptor)	IC50 (D(3) dopamine receptor [8])	inhibition [9]	SMILES	Kd [10]	Kd [11]	Kd [12]
< 50%	1490 nM	820 nM	1430 nM	83%	44	101 nM	9.5 nM	3240 nM	421 nM			COc1ccccc1N1CCN(CC(F)CCNC(=O)c2cc3ccccc3[nH]2)CC1 (configuration not stated)			
					133							O=C(NC/C=C/CN1CCN(c2cccc(Cl)c2Cl)CC1)c1ccc(-c2ccccn2)cc1			
		780 nM	600 nM	76%	20	73 nM	13.9 nM	3000 nM	274 nM	1240 nM		COc1ccc2oc(C(=O)NCCC(F)CN3CCN(c4ccccc4OC)CC3)cc2c1 (configuration not stated)			
					16		134 nM		2090 nM			OC(CCNCc1ccc2c(c1)Cc1ccccc1-2)CN1CCN(c2cccc(Cl)c2Cl)CC1 (configuration not stated)			
		17 nM			163	2140 nM	2.9 nM	3290 nM	472 nM	3770 nM		O=C(NCCC(F)CN1CCN(c2cccc(Cl)c2Cl)CC1)c1cc2ccccc2s1 (configuration not stated)			
					11		467 nM		5270 nM			FC(CCNCc1ccc2c(c1)Cc1ccccc1-2)CN1CCN(c2cccc(Cl)c2Cl)CC1 (configuration not stated)			
					1.5		80.8 nM		119 nM			CCCN(CCCCN1CCN(c2ccccc2OC)CC1)Cc1ccc2ccccc2c1			
					5		162 nM		869 nM			CN(CCC(O)CN1CCN(c2cccc(Cl)c2Cl)CC1)Cc1ccc2c(c1)Cc1ccccc1-2 (configuration not stated)			
												O=C(NCCC(F)CN1CCN(c2cccc(Cl)c2Cl)CC1)c1cc2ccccc2o1 (configuration not stated)	0.08 nM	0.02 nM	0.02 nM
	3360 nM		2140 nM	88%	131	223 nM	4 nM	212 nM	526 nM	1220 nM		O=C(NCCC(F)CN1CCN(c2cccc(Cl)c2Cl)CC1)c1cc2ccccc2[nH]1 (configuration not stated)			
		390 nM	71.6 nM	73%	19	49 nM	20.5 nM	2060 nM	390 nM	699 nM		COc1ccccc1N1CCN(CC(F)CCNC(=O)c2ccc(-c3ccccn3)cc2)CC1 (configuration not stated)			
< 50%	3180 nM	214 nM			286	299 nM	10.1 nM	> 10000 nM	2890 nM			COc1ccccc1N1CCN(CC(F)CCNC(=O)c2ccc3c(c2)Cc2ccccc2-3)CC1 (configuration not stated)			
	3090 nM	256 nM	1080 nM			159 nM	6.2 nM	98 nM	378 nM			O=C(NCCC(F)CN1CCN(c2cccc(Cl)c2Cl)CC1)c1ccc(-c2ccccn2)cc1 (configuration not stated)			
< 50%		320 nM			153		1.5 nM	272 nM	230 nM		< 50%	COc1ccc2[nH]c(C(=O)NCCC(F)CN3CCN(c4cccc(Cl)c4Cl)CC3)cc2c1 (configuration not stated)			
					3		104 nM		313 nM			CCCN(CCCCN1CCN(c2cccc(Cl)c2Cl)CC1)Cc1ccc2ccccc2c1			
		440 nM	134 nM	60%	11	37.9 nM	28.6 nM	4800 nM	329 nM			COc1ccccc1N1CCN(CC(F)CCNC(=O)c2cc3ccccc3o2)CC1 (configuration not stated)			
< 50%		255 nM			32		6.1 nM	1910 nM	195 nM		< 50%	O=C(NCCC(F)CN1CCN(c2cccc(Cl)c2Cl)CC1)c1ccc2ccccc2c1 (configuration not stated)			
		1140 nM			66	1170 nM	4.6 nM	3540 nM	302 nM	2990 nM		COc1ccc2[nH]c(C(=O)NCCC(F)CN3CCN(c4ccccc4OC)CC3)cc2c1 (configuration not stated)			
		83 nM	440 nM	57%	63	139 nM	3.8 nM	3030 nM	241 nM	3210 nM		COc1ccccc1N1CCN(CC(F)CCNC(=O)c2cc3ccccc3s2)CC1 (configuration not stated)			
					2				162 nM			CCCN(CCCCN1CCN(c2cccc(Cl)c2Cl)CC1)Cc1cc2ccccc2s1			
< 50%		800 nM			1640	6000 nM	2.6 nM	4800 nM	4260 nM			O=C(NCCC(F)CN1CCN(c2cccc(Cl)c2Cl)CC1)c1ccc2c(c1)Cc1ccccc1-2 (configuration not stated)			
< 50%		1430 nM			35	501 nM	8 nM	274 nM	279 nM			COc1ccc2oc(C(=O)NCCC(F)CN3CCN(c4cccc(Cl)c4Cl)CC3)cc2c1 (configuration not stated)			
					3		71.5 nM		196 nM			CCCN(CCCCN1CCN(c2ccccc2OC)CC1)Cc1ccc2c(c1)Cc1ccccc1-2			
					1		67.9 nM		69.9 nM			CCCN(CCCCN1CCN(c2ccccc2OC)CC1)Cc1cc2ccccc2s1			
					2		129 nM		269 nM			CCCN(CCCCN1CCN(c2cccc(Cl)c2Cl)CC1)Cc1ccc2c(c1)Cc1ccccc1-2			

SMILES	inhibition (D(3) dopamine receptor [1])	Ki (D(4) dopamine receptor)	IC50 (D(3) dopamine receptor [2])	EC50 [3]	Activity [4]	Ratio Ki (Homo sapiens)	Ki [5]	Ki (D(3) dopamine receptor [6])	Ki [7]	Ki (D(2) dopamine receptor)	IC50 (D(3) dopamine receptor [8])	inhibition [9]	Kd [10]	Kd [11]	Kd [12]
CN(CCC(F)CN1CCN(c2cccc(Cl)c2Cl)CC1)Cc1ccc2c(c1)Cc1ccccc1-2 (configuration not stated)			918 nM			5		393 nM	2580 nM	2060 nM		< 50%			
